Experimental data published in patent US8669072B2, “Oxadiazoline ligands for modulating the expression of exogenous genes via an ecdysone receptor complex” (Intrexon Corporation, priority 2003, dated 2014).

What was measured:
[1] = target: T1, GAL4 DBD-CfEcR(DEF)/VP16AD-MmRXRE (Choristoneura fumiferana, UniProt O77240); experiment: 13B3 assay: luciferase reporter gene induction in stable CHO clone 13B3; type: cell-based; details: 33/33.3 μM ligand, 48 h, RLU relative to DMSO; for fold induction at 33.3 µM: read-out: Fold Induction Average, 13B3 assay
T1 construct: The wild-type D, E, and F domains from spruce budworm Choristoneura fumiferana EcR (“CfEcR-DEF”)
Procedure: CHO cells were transiently transfected with transcription cassettes for GAL4 DBD-CfEcR(DEF) and for VP16AD-MmRXRF controlled by SV40e promoters. Stably transfected cells were selected using Hygromycin. Individually isolated CHO cell clones were transiently transfected with a GAL4 RE-luciferase reporter (pFR-Luc, Stratagene, La Jolla, Calif.). The 13B3 clone was selected using Zeocin.
Cells were trypsinized and diluted to a concentration of 2.5×10^4 cells mL. 100 μL of cell suspension was placed in each well of a 96 well plate and incubated at 37° C. under 5% CO2 for 24 h. Ligand stock solutions were prepared in DMSO and diluted 300 fold for all treatments.
Luciferase reporter gene expression was measured 48 h after cell treatment using Bright-Glo™ Luciferase Assay System from Promega (E2650). Luminescence was detected at room temperature using a Dynex MLX microtiter plate luminometer.
(§1) Each assay was conducted in two separate wells, and the two values were averaged. Fold inductions were calculated by dividing relative light units (“RLU”) in ligand treated cells with RLU in DMSO treated cells. EC50s were calculated from dose response data using a three-parameter logistic model.

Bombyx mori EcR (VBE) = target: T2, Bombyx mori EcR (VBE) (Bombyx mori, UniProt P49881); experiment: Z3 assay: β-galactosidase reporter gene induction in HEK-293 clone Z3 (CVBE / 6XEcRE LacZ); type: cell-based; details: 33 μM ligand, 48 h, RLU relative to DMSO; for fold induction at 33 µM: HEK293, read-out: Fold Induction Average, Z3 assay
T2 construct: expressed in transfected cells; host or cells: Human HEK-293 cells, retrovirally infected, clone Z3
T2 sequence (P49881 86-606 limits assumed): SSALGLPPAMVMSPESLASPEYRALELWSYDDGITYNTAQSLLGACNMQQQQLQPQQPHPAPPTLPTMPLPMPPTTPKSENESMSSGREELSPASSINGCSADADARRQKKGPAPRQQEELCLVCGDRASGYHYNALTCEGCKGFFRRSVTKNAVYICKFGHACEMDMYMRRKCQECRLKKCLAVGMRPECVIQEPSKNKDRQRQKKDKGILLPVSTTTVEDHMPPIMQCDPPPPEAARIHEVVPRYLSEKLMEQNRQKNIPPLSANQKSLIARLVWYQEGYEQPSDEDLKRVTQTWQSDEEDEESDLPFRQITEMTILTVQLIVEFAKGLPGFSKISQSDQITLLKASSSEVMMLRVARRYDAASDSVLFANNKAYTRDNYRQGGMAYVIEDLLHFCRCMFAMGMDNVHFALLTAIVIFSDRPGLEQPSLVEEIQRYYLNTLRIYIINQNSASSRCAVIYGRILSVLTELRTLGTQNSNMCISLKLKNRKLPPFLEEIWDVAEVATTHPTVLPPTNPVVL
T2 sequence (P19793 1-462 partner): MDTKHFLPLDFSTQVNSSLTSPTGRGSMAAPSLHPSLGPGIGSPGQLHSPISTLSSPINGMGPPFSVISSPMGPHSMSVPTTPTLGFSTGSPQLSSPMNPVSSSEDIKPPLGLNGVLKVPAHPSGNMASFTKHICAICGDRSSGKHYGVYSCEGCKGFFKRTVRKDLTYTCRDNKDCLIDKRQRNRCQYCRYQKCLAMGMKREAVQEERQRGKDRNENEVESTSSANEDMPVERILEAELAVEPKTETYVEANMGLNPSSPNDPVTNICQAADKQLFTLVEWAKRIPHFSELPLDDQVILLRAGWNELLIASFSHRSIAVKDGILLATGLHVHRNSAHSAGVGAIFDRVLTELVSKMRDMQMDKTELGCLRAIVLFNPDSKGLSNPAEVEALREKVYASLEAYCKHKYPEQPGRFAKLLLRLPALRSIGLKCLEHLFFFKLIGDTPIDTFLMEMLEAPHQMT
Procedure: A synthetic ATG start codon was placed under the control of cytomegalovirus (CVBE) immediate early promoter and flanked by long terminal repeats (LTR). The reporter construct contained six copies of the ecdysone response element (EcRE) binding site placed upstream of LacZ and flanked on both sides with LTR sequences (6×EcRE).
Dilution cloning was used to isolate individual clones. Clones were selected using 450 ug/mL G418 and 100 ng/mL puromycin. Individual clones were evaluated based on their response in the presence and absence of test ligands.
Z3 cells were seeded into 96-well tissue culture plates at a concentration of 2.5×10^3 cells per well and incubated at 37° C. in 5% CO2 for twenty-four hours. Stock solutions of ligands were prepared in DMSO. […] The final concentration of DMSO was maintained at 0.03% in both controls and treatments.
Reporter gene expression was evaluated 48 hours after treatment of cells, β-galactosidase activity was measured using Gal Screen™ bioluminescent reporter gene assay system from Tropix (GSY1000). Fold induction activities were calculated by dividing relative light units (“RLU”) in ligand treated cells with RLU in DMSO treated cells. Luminescence was detected at room temperature using a Dynex MLX microtiter plate luminometer.
as §1

SMILES | Fold Induction Average, 13B3 assay [1] | Fold Induction Average, Z3 assay (Bombyx mori EcR (VBE)) | fold induction at 33.3 µM [1] | fold induction at 33 µM (Bombyx mori EcR (VBE))
Cc1cc(C)cc(C2=NOC3(CCCC3)N2NC(=O)COCc2ccccc2)c1 [RG-120052] | 0.7 | 4.9 |  | 
Cc1cccc(NC(=O)NN2C(c3cc(C)cc(C)c3)=NOC2(C)C)c1 [RG-120056] | 0.1 | 1.0 |  | 
COc1ccccc1C1=NOC(C)(C)N1NC(=O)COc1ccccc1 [RG-120057] | 0.6 | 0.8 |  | 
COc1ccccc1C1=NOC(C)(C)N1NC(=O)C(F)(F)C(F)(F)Cl [RG-120062] | 0.2 | 0.6 |  | 
CC1(C)ON=C(c2ccc(OC(F)(F)F)cc2)N1NC(=O)COCc1ccccc1 [RG-120066] | 1.4 | 0.6 |  | 
CC1(C)ON=C(c2ccc(Cl)cc2)N1NC(=O)Nc1ccccc1 [RG-120067] | 2.6 | 0.5 |  | 
CC1(C)ON=C(c2cccc(C(F)(F)F)c2)N1NC(=O)c1ccco1 [RG-120070] | 0.4 | 0.7 |  | 
Cc1cc(C)cc(C2=NOC(C)(C)N2NC(=O)Nc2ccccc2)c1 [RG-120072, 1-[3-(3,5-Dimethyl-phenyl)-5,5-dimethyl-[1,2,4]oxadiazol-4-yl]-3-phenyl-urea] |  |  | 0.6 | 1.3
CC1(C)ON=C(c2ccc(Cl)cc2)N1NC(=O)C(F)(F)C(F)(F)Cl [RG-120073] | 0.9 | 0.5 |  | 
COc1ccccc1C(=O)NN1C(c2cc(C)cc(C)c2)=NOC1(C)C [RG-120075] | 1.1 | 0.7 |  | 
COc1ccc(C2=NOC(C)(C)N2NC(=O)COc2ccccc2)c(OC)c1 [RG-120079] | 0.7 | 0.6 |  | 
CC1(C)ON=C(c2ccc3c(c2)OCO3)N1NC(=O)Cc1ccccc1 [RG-120081] | 0.5 | 0.6 |  | 
CC1(C)ON=C(c2ccc(Cl)cc2)N1NC(=O)c1ccco1 [RG-120082] | 0.1 | 0.8 |  | 
CCOC(=O)CCC(=O)NN1C(c2ccc3c(c2)OCO3)=NOC1(C)C [RG-120083] | 1.3 | 0.8 |  | 
COc1cccc(C(=O)NN2C(c3cc(C)cc(C)c3)=NOC23CCOCC3)c1C [RG-120086, N-[3-(3,5-dimethyl-phenyl)-1,8-dioxa-2,4-diaza-spiro[4.5]dec-2-en-4-yl]-3-methoxy-2-methyl-benzamide] |  |  | 4 | 112
CC1(C)ON=C(c2ccc(Cl)cc2)N1NC(=O)c1cc2ccccc2s1 [RG-120087] | 0.4 | 0.4 |  | 
Cc1cc(C)cc(C2=NOC(C)(C)N2NC(=O)NCc2ccccc2)c1 [RG-120088] | 0.9 | 8.2 |  | 

SMILES | Fold Induction Average, 13B3 assay [1] | Fold Induction Average, Z3 assay (Bombyx mori EcR (VBE)) | fold induction at 33.3 µM [1] | fold induction at 33 µM (Bombyx mori EcR (VBE))
Cc1cc(C)cc(C2=NOC(C)(C)N2NC(=O)c2cccc([N+](=O)[O-])c2)c1 [RG-120091] | 0.5 | 1.5 |  | 
CC1(C)ON=C(c2ccc(OC(F)(F)F)cc2)N1NC(=O)c1ccco1 [RG-120094] | 0.6 | 0.8 |  | 
Cc1cc(C)cc(C2=NOC(C)(C)N2NC(=O)c2ccccc2[N+](=O)[O-])c1 [RG-120098] | 0.3 | 1.8 |  | 
COc1ccc(C2=NOC(C)(C)N2NC(=O)c2ccco2)c(OC)c1 [RG-120102] | 0.5 | 0.8 |  | 
COc1ccc(C2=NOC(C)(C)N2NC(=O)COCc2ccccc2)c(OC)c1 [RG-120110] | 0.8 | 0.5 |  | 
Cc1cc(C)cc(C2=NOC(C)(C)N2NC(=O)NC(=O)c2ccccc2)c1 [RG-120111] | 0.6 | 0.7 |  | 
COc1ccc(C2=NOC(C)(C)N2NC(=O)Nc2ccccc2)c(OC)c1 [RG-120114] | 1.1 | 0.6 |  | 
CC1(C)ON=C(c2ccc(Cl)cc2)N1NC(=O)COCc1ccccc1 [RG-120117] | 1.2 | 0.8 |  | 
CC1(C)ON=C(c2ccc(Cl)cc2)N1NC(=O)Cc1ccccc1 [RG-120121] | 0.1 | 0.7 |  | 
CC1(C)ON=C(c2ccc(OC(F)(F)F)cc2)N1NC(=O)Nc1ccccc1 [RG-120122] | 0.5 | 0.6 |  | 
CC1(C)ON=C(c2ccc3c(c2)OCO3)N1NC(=O)COc1ccccc1 [RG-120127] | 0.6 | 0.7 |  | 
COc1ccc(C2=NOC(C)(C)N2NC(=O)c2cc3ccccc3s2)c(OC)c1 [RG-120129] | 0.9 | 0.4 |  | 
CC1(C)ON=C(c2ccc3c(c2)OCO3)N1NC(=O)c1cc2ccccc2s1 [RG-120140] | 1.4 | 0.5 |  | 
CCc1ccc(C(=O)NN2C(c3ccc(-c4ccccc4)cc3)=NOC2(C)C)cc1 [RG-120142] | 0.3 | 0.4 |  | 
CCOC(=O)CCC(=O)NN1C(c2ccccc2OC)=NOC1(C)C [RG-120144] | 0.1 | 0.7 |  | 
CC1(C)ON=C(c2ccc3c(c2)OCO3)N1NC(=O)COCc1ccccc1 [RG-120145] | 1.4 | 0.5 |  | 
COc1ccccc1C1=NOC(C)(C)N1NC(=O)c1ccccc1 [RG-120147] | 1.1 | 1.0 |  | 
